From US20120129843A1, “PYRIDYL-THIAZOLYL INHIBITORS OF PRO-MATRIX METALLOPROTEINASE ACTIVATION” (priority 2010, published 2012)

Experiments:
[1] = test system: rats with SCW-induced arthritis; assay: Efficacy in rats with SCW-induced arthritis (ankle thickness, clinical score); assay type: in vivo, rat; details: for Clinical Scores (0-8), Day 18 (mean): Day 18, start of treatment; for Clinical Scores (0-8), Day 26 (mean): Day 18-26
Text: A polyarthritis can be induced in female Lewis rats following i.p. administration of streptococcal cell wall (SCW) proteoglycan-polysaccharides (PG-PS) (J Exp Med 1977; 146:1585-1602). The model has an acute phase (days 3-7) that is complement and neutrophil-dependent and that resolves. A chronic erosive phase begins at about day ten and is dependent on the development of specific T cell immunity to the PG-GS, which resists digestion and remains present in synovial macrophages for months. Like rheumatoid arthritis, SCW-induced arthritis is reduced by TNF inhibitors, and the dependence of SCW-induced arthritis on macrophages (Rheumatology; 2001; 40:978-987) and the strong association of rheumatoid arthritis severity with synovial-tissue macrophage counts (Ann Rheum Dis; 2005; 64:834-838) makes SCW-arthritis an attractive model for testing potential therapeutic agents. SCW PG-PS 10S (Beckton Dickinson Cat#210866) suspended in saline was vortexed for 30 seconds and sonicated for 3 min with a probe type sonicator prior to injection. Female Lewis (LEW/N) rats, 5-6 weeks of age (80-100 g) were injected (i.p.) with SCW PG-PS (15 μg of rhamnose/gram BW) in the lower left quadrant of the abdomen using a 1 mL syringe fitted with a 23-gauge needle. Control (disease-free) rats were treated in a similar manner with sterile saline. Control rats were sacrificed on day 5 and groups of SCW-injected rats were sacrificed on day 5 when acute inflammation was maximal or on day 18 when chronic inflammation was established.
To induce arthritis, Female Lewis (LEW/N) rats, 5-6 weeks of age (80-100 g) were injected (i.p.) with SCW PG-PS as described above. Eighteen days later, arthritis was well established. Calipers were used to measure the width (anterior to posterior surface) of the left and right hind ankles of each rat. Each ankle was measured 3 times and averaged, and treatment groups were randomized based on ankle thickness (Table 6). Commencing on day 18, randomized groups of arthritic rats (n=5 rats/group) received vehicle or 5, 20, or 50 mg/kg Compound-α BID by oral gavage. Vehicle consisted of an aqueous mixture containing 2% (v:v) N-methylpyrrolidone, 5% (v:v) glycerine, and 20% (w:v) captisol. Treatment continued daily through the morning of day 26.
By day 18 mean ankle thickness was increased an average of >4.4 mm compared to disease free rats. Rats treated with vehicle alone continued to gradually develop a more severe arthritis based on ankle thickness measurements over the eight-day treatment period (Table 6). […] By day 26, the disease associated increase in ankle thickness had been reduced 27, 37, and 46 percent by 5, 20, and 50 mg/kg Compound-α, respectively.
Hind paw inflammation clinical scores were assigned based on swelling and erythema.

[2] = molecular target: T1, MMP9 mediated gelatinase activity in the livers (Rattus norvegicus, UniProt P50282); assay: In situ zymography of gelatinase activity in livers of SCW-induced rats dosed with compound; assay type: in vivo; details: for Intensity, Mean / Intensity, Rat 1 / Intensity, Rat 2 / Intensity, Rat 3: SCW, Day 25-28
T1 construct: from tissue; host or cells: frozen liver sections of female Lewis rats
Text: Compound-α Reduced MMP9 Mediated Gelatinase Activity in the Livers of Rats with SCW Arthritis In situ zymography provides an alternative approach to assess active MMP9 in tissues (Frederiks). Tissue sections are overlain with fluorescene-conjugated gelatin wherein the conjugation is sufficiently dense to cause the fluorescene to be dye-quenched (DQ). Proteolytic degradation of the DQ-gelatin releases the fluorescene from the quenching effect giving rise to bright green fluorescence at the site of degradation. Because in situ zymography requires the use of frozen sections, calcified tissues are problematic. However, an additional feature of the SCW arthritis model is the development of hepatic granulomatous disease (J Immunol; 1986; 137:2199-2209), and MMP9 reportedly plays a role in macrophage recruitment in the granulomas response to mycobacteria (Infect Immun; 2006; 74:6135-6144). Consequently, granulomatous livers from SCW-treated rats were assessed for active MMP9 by in situ zymography.
As described above, Female Lewis (LEW/N) rats, 5-6 weeks of age (80-100 g) were injected (i.p.) with saline or SCW PG-PS. On day 28, when the granulomatous response was well established, animals were sacrificed and livers were frozen in OCT cryo-sectioning medium and 10 μm sections were cut on a Cryome HM 500 M cryotome and mounted on glass microscope slides. Sections were air dried briefly. MMP9 was confirmed as the source of the gelatinase activity in the liver by treating liver sections with monoclonal antibodies directed against the active site of the two major gelatinases MMP9 and MMP2. Liver sections overlain with 50 μL of 100 μg/mL neutralizing mouse monoclonal antibodies directed against MMP9 (Calbiochem, clone 6-6B), or MMP2 (Millipore, clone CA-4001), or with PBS for 1 hr at room temperature. Tissues were rinsed once with PBS, blotted, and briefly air dried and then overlain with DQ-gelatin (Invitrogen) dissolved to 1 mg/mL in deionized water and then diluted 1:10 in 1% wt/vol low gelling point agarose type VII (Sigma) in PBS. The sections were covered with coverslips, incubated in the dark at room temperature for 20 min, and imaged on an Olympus IX80 inverted microscope fitted with fluorescence optics, using SlideBook™ imaging software (Intelligent Imaging Innovations, Inc., Philadelphia, Pa.; version 5.0). Fluorescence intensity was determined (Table 8). When compared to a saline-treated rat, gelatinase activity was abundantly expressed in granulomatous liver sections obtained from a rat with SCW arthritis.
Next, liver in situ zymography was used to assess the relative presence of active MMP9 in rats dosed with vehicle vs. Compound-α. Female Lewis (LEW/N) rats, 5-6 weeks of age (80-100 g) were injected (i.p.) with saline or SCW PG-PS. Commencing on day 25, randomized groups of rats (n=3 rats/group) received vehicle or 20 or 50 mg/kg Compound-α BID by oral gavage. Vehicle consisted of an aqueous mixture containing 2% (v:v) N-methylpyrrolidone, 5% (v:v) glycerine, and 20% (w:v) captisol. Treatment continued daily through the morning of day 28. Four hrs after the AM dose on day 28, rats were sacrificed and livers assessed for active MMP9 by in situ zymography (Table 9). Gelatinase activity was increased markedly in SCW-induced rats, but activity was reduced by approximately 80% in animals treated with 50 mg/kg Compound-α.

T1 sequence (P50282 20-708): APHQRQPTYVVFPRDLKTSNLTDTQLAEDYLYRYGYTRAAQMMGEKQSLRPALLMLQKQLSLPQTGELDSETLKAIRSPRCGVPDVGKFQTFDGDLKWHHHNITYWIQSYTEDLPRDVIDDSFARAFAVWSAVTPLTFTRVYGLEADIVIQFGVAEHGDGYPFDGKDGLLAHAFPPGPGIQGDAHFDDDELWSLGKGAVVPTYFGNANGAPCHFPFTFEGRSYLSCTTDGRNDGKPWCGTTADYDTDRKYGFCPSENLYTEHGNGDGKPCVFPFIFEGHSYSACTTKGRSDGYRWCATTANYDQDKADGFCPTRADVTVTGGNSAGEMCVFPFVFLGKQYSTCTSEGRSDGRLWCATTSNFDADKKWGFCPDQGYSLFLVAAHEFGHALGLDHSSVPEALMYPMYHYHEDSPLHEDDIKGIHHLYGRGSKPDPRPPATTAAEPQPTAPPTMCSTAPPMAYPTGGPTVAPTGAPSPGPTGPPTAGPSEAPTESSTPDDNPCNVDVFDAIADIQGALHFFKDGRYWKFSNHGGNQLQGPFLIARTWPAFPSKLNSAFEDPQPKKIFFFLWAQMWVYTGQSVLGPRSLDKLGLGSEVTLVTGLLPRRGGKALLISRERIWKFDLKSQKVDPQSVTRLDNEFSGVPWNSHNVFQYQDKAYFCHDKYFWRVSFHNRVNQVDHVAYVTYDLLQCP

- reduction of liver gelatinase activity ([2]; 50 mg/kg, SCW-induced rats): approximately 80%
- Intensity, Mean ([2]; 20 mg/kg BID oral): 55.2 RLU × 10^6
- Intensity, Rat 1 ([2]; 20 mg/kg BID oral): 43.0 RLU × 10^6
- Intensity, Rat 2 ([2]; 20 mg/kg BID oral): 69.0 RLU × 10^6
- Intensity, Rat 3 ([2]; 20 mg/kg BID oral): 53.7 RLU × 10^6
- Intensity, Mean ([2]; 50 mg/kg BID oral): 11.1 RLU × 10^6
- Intensity, Rat 1 ([2]; 50 mg/kg BID oral): 3.2 RLU × 10^6
- Intensity, Rat 2 ([2]; 50 mg/kg BID oral): 25.6 RLU × 10^6
- Intensity, Rat 3 ([2]; 50 mg/kg BID oral): 4.5 RLU × 10^6
Structure (SMILES): Cc1nc(C)c(-c2csc(Nc3cc(S(N)(=O)=O)ccc3OC(C)C)n2)s1 [Compound-α, 3-(2′,4′-Dimethyl-[4,5′]bithiazolyl-2-ylamino)-4-isopropoxy-benzenesulfonamide.HBr]
- Clinical Scores (0-8), Day 18 (mean) ([1]; 5 mg/kg BID group): 8.00
- Clinical Scores (0-8), Day 26 (mean) ([1]; 5 mg/kg BID): 6.80
- Clinical Scores (0-8), Day 18 (mean) ([1]; 20 mg/kg BID group): 8.00
- Clinical Scores (0-8), Day 26 (mean) ([1]; 20 mg/kg BID): 5.20
- Clinical Scores (0-8), Day 18 (mean) ([1]; 50 mg/kg BID group): 7.80
- Clinical Scores (0-8), Day 26 (mean) ([1]; 50 mg/kg BID): 4.40
